# Data from article PMC9207808 (ACS Chemical Biology, 2022).
# Residues, ends and D or L forms follow the SMILES beside them.
# Assays:
# [1] = system: DocSTm; test: Differential scanning fluorimetry (thermal stabilisation of Doc); assay type: binding, S. Typhimurium; conditions: for melting temperature shift ΔTm: DSF, DocSTm 5 μM, analyte 50 μM, Tm with analyte minus Tm of free DocSTm (42.9 ± 0.9 °C), SYPRO Orange, 20 mM K2HPO4, 50 mM (NH4)2SO4, pH 8.0, triplicate; for Average Tm / Tm: DocSTm 5 µM + 50 µM binder; for Average Tm: average of 3 replicates
# Summary of the method: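 Tm values come from fitting the sigmoidal melt region to a Boltzmann function. Doc (5 μM final) was ramped 25–95 °C with SYPRO Orange (3× final) in pH 8.0 buffer of 20 mM K2HPO4 and 50 mM (NH4)2SO4; each condition in triplicate.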
# [2] = system: DocSTm; test: Surface plasmon resonance binding to immobilised Doc; set-up: species or system S. Typhimurium; conditions: for gain of affinity compared to peptide 1: SPR Kd relative to peptide 1; for koff × 10^-6 / kon × 10^6: 1:1 kinetic fit, mean ± SD of at least 3 replicates; for kon × 10^6: single-cycle kinetics (multicycle for PhdSTm1-73); for Half-life of the complex: t1/2 = ln2 / koff
# Summary of the method: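 Binding constants are means ± SD of at least three replicates: steady-state Kd directly, or Kd calculated from kinetic kon and koff. Sensorgrams were double-referenced and fitted 1:1 after 80 s analyte injections (30 μL/min), either multicycle or single-cycle, over NTA-immobilised Doc. Running buffer was HEPES/500 mM NaCl/EDTA/Tween pH 8.0 at 22 °C.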
# [3] = system: DocSTm; test: Dot blot phosphorylation assay (EF-Tu phosphorylation by Doc); assay type: biochemical, S. Typhimurium; conditions: α-pThr, DocSTm 1 μM, EF-TuSTm 3 μM, ATP 1 mM, inhibitor 10 μM to 5 nM (3-fold dilutions), 16 h at RT
# Description: Samples were prepared to a final volume of 10 μL. […] Samples were incubated for 16 h at RT and subsequently spotted on a nitrocellulose membrane. Phosphorylated EF-Tu was detected by immunodecoration using a rabbit monoclonal antiphosphothreonine antibody (Abcam, ab218195) at 1:2000 dilution (1 h at 4 °C), followed by incubation with a goat antirabbit IgG (H+L) HRP conjugate antibody (Advansta) at 1:10 000 dilution (1 h at RT). Chemiluminescence was developed using the HRP Luminata kit (Merck, WBLUR0100) and captured by an ImageQuant LAS4000 Western blot imaging system (Cytiva).
# [4] = system: S. Typhimurium (14028) Δphd-doc::Km strains coexpressing DocSTm; test: Growth rescue experiment in S. Typhimurium; assay type: cell-based; conditions: coexpression of DocSTm (pBAD33, arabinose) and Phd construct (pCA24N, basal expression); OD600 over time, M9 minimal medium; average of three independent experiments
# Description: The cotransformations above were also performed with an empty pBAD33 plasmid, as a control for the absence of DocSTm expression.
# For the growth rescue experiment, overnight (1% tryptone, 0.5% yeast extract, 0.5% NaCl, 1% glucose, 100 μg/mL of carbenicillin, and 34 μg/mL of chloramphenicol) cultures of the generated S. Typhimurium strains were diluted to an OD600 of approximately 0.006 into fresh M9 minimal medium supplemented with 0.5% or 1% arabinose, 0.4% glycerol, 0.4% casamino acids, 100 μg/mL of carbenicillin, and 34 μg/mL of chloramphenicol. Cell growth at a given time was monitored at OD600 with a Genesys 140 Visible Spectrophotometer (Thermo Scientific).
# [5] = SPR, kinetic fit, KD calculated from mean koff and kon, SD propagated, 22 °C, pH 8.0
smiles,measurement,setting,value
CC[C@H](C)[C@H](NC(=O)[C@H](C)NC(=O)[C@H](C)NC(=O)[C@H](Cc1ccccc1)NC(=O)[C@H](CCC(=O)O)NC(=O)[C@H](CC(=O)O)NC(=O)[C@H](C)NC(=O)[C@H](CCSC)NC(=O)[C@H](Cc1c[nH]c2ccccc12)NC(C)=O)C(=O)N[C@@H](CCSC)C(=O)N[C@@H](C)C(=O)N[C@H](C(=O)N[C@@H](Cc1c[nH]cn1)C(=O)NCC(=O)N[C@@H](CC(N)=O)C(=O)N[C@@H](CCC(=O)O)C(=O)N[C@@H](CC(C)C)C(=O)N[C@@H](CCCNC(=N)N)C(=O)N[C@@H](CCC(=O)O)C(=O)N[C@@H](CC(C)C)C(=O)N[C@@H](C)C(=O)N[C@@H](CC(=O)O)C(=O)N[C@@H](CCCCN)C(=O)O)C(C)C [peptide 3] (Ac-WMADEFAAIMAVHGNELRELADK-OH; C-terminus assumed),melting temperature shift ΔTm,[1],25.6 ± 0.9 °C
same,Average Tm,[1],68.5 ± 0.3 °C
same,Tm,[1]; replicate 1,68.3 °C
same,Tm,[1]; replicate 2,68.4 °C
same,Tm,[1]; replicate 3,68.8 °C
same,improvement in koff compared with 1,[2]; SPR,~1.5 fold
same,improvement in kon compared with 1,[2]; SPR,~4 fold
same,gain of affinity compared to peptide 1,[2],greater than 5 fold
same,Kd,"[2]; SPR kinetic fit, replicate 1",0.0121 nM
same,Kd,"[2]; SPR kinetic fit, replicate 2",0.0166 nM
same,Kd,"[2]; SPR kinetic fit, replicate 3",0.00992 nM
same,koff × 10^-6,"[2]; SPR, 22 °C, pH 8.0",65 ± 18 ×10^-6 s-1
same,kon × 10^6,"[2]; SPR, 22 °C, pH 8.0",5.073 ± 0.369 ×10^6 M-1 s-1
same,Kd,[2]; [5],0.013 nM
same,Half-life of the complex,[2],2.9 ± 0.8 h
same,inhibition of EF-TuSTm phosphorylation by DocSTm (in words),[3],inhibited DocSTm at similar concentrations to peptide 1
same,rescue of Salmonella growth from DocSTm-induced growth inhibition (in words),[4],a faster recovery was achieved
CC[C@H](C)[C@H](NC(=O)[C@H](C)NC(=O)[C@H](C)NC(=O)[C@H](Cc1ccccc1)NC(=O)[C@H](CCC(=O)O)NC(=O)[C@H](C)NC(=O)[C@H](CC(=O)O)NC(=O)[C@H](CCSC)NC(=O)[C@H](Cc1c[nH]c2ccccc12)NC(C)=O)C(=O)N[C@@H](CCSC)C(=O)N[C@@H](C)C(=O)N[C@H](C(=O)N[C@@H](Cc1c[nH]cn1)C(=O)NCC(=O)N[C@@H](CC(N)=O)C(=O)N[C@@H](CCC(=O)O)C(=O)N[C@@H](CC(C)C)C(=O)N[C@@H](CCCNC(=N)N)C(=O)N[C@@H](CCC(=O)O)C(=O)N[C@@H](CC(C)C)C(=O)N[C@@H](C)C(=O)N[C@@H](CC(=O)O)C(=O)N[C@@H](CCCCN)C(=O)O)C(C)C [peptide 4] (Ac-WMDAEFAAIMAVHGNELRELADK-OH; C-terminus assumed),melting temperature shift ΔTm,[1],26.2 ± 0.9 °C
same,Average Tm,[1],69.1 ± 0.2 °C
same,Tm,[1]; replicate 1,69.0 °C
same,Tm,[1]; replicate 2,69.3 °C
same,Tm,[1]; replicate 3,69.1 °C
same,improvement in koff compared with 1,[2]; SPR,~1.5 fold
same,improvement in kon compared with 1,[2]; SPR,~4 fold
same,gain of affinity compared to peptide 1,[2],greater than 5 fold
same,Kd,"[2]; SPR kinetic fit, replicate 1",0.0128 nM
same,Kd,"[2]; SPR kinetic fit, replicate 2",0.0166 nM
same,Kd,"[2]; SPR kinetic fit, replicate 3",0.0101 nM
same,koff × 10^-6,"[2]; SPR, 22 °C, pH 8.0",62 ± 17 ×10^-6 s-1
same,kon × 10^6,"[2]; SPR, 22 °C, pH 8.0",4.733 ± 0.155 ×10^6 M-1 s-1
same,Kd,[2]; [5],0.013 nM
same,Half-life of the complex,[2],3.1 ± 0.8 h
same,inhibition of EF-TuSTm phosphorylation by DocSTm (in words),[3],inhibited DocSTm at similar concentrations to peptide 1
same,rescue of Salmonella growth from DocSTm-induced growth inhibition (in words),[4],restored bacterial growth following similar kinetics as the wild-type sequence
CC[C@H](C)[C@H](NC(=O)[C@H](C)NC(=O)[C@H](C)NC(=O)[C@H](C)NC(=O)[C@H](CCC(=O)O)NC(=O)[C@H](CC(=O)O)NC(=O)[C@H](CC(=O)O)NC(=O)[C@H](CCSC)NC(=O)[C@H](Cc1c[nH]c2ccccc12)NC(C)=O)C(=O)N[C@@H](CCSC)C(=O)N[C@@H](C)C(=O)N[C@H](C(=O)N[C@@H](Cc1c[nH]cn1)C(=O)NCC(=O)N[C@@H](CC(N)=O)C(=O)N[C@@H](CCC(=O)O)C(=O)N[C@@H](CC(C)C)C(=O)N[C@@H](CCCNC(=N)N)C(=O)N[C@@H](CCC(=O)O)C(=O)N[C@@H](CC(C)C)C(=O)N[C@@H](C)C(=O)N[C@@H](CC(=O)O)C(=O)N[C@@H](CCCCN)C(=O)O)C(C)C [peptide 6] (Ac-WMDDEAAAIMAVHGNELRELADK-OH; C-terminus assumed),melting temperature shift ΔTm,[1],21.1 ± 1.0 °C
same,Average Tm,[1],64.0 ± 0.5 °C
same,Tm,[1]; replicate 1,64.5 °C
same,Tm,[1]; replicate 2,64.1 °C
same,Tm,[1]; replicate 3,63.5 °C
same,"affinity to DocSTm greater than that of peptides 7, 10 and 14",[2]; SPR Kd ratio,at least 12 fold
same,fold decrease in affinity (given as decrease/loss in Kd) compared with peptide 1,[2]; SPR Kd relative to wild-type peptide 1,8- to 30 fold
same,Kd,"[2]; SPR kinetic fit, replicate 1",1 nM
same,Kd,"[2]; SPR kinetic fit, replicate 2",0.919 nM
same,Kd,"[2]; SPR kinetic fit, replicate 3",0.745 nM
same,koff × 10^-6,"[2]; SPR, 22 °C, pH 8.0",843 ± 231 ×10^-6 s-1
same,kon × 10^6,"[2]; SPR, 22 °C, pH 8.0",0.989 ± 0.434 ×10^6 M-1 s-1
same,Kd,[2]; [5],0.852 nM
same,Half-life of the complex,[2],0.23 ± 0.06 h
same,inhibition of EF-TuSTm phosphorylation by DocSTm (in words),[3],among the poorest inhibitors of EF-TuSTm phosphorylation
same,rescue of Salmonella growth from DocSTm-induced growth inhibition (in words),[4],not able to counteract DocSTm-induced growth inhibition of Salmonella
